These results are taken from patent US7858612B2, “Therapeutic agent for inflammatory bowel diseases” (Meiji Seika Kaisha, Ltd., priority 2007, dated 2010).

Usually inhibition stands for the change of the read-out against control, counted positive when it falls.

Where two headings read alike, the source gives them in different places. Marks after values point to notes of the source that are not given here.

In data set [1] the test system is DSS induced rat IBD chronic model. Put plainly: DSS induced rat IBD chronic model (therapeutic effect). It is filed as in vivo, Wistar rats. The method, then:
Colitis was induced by freely allowing male 7 week-old Wistar rats (purchased from Japan SLC, Inc.) to ingest 3% DSS solution for 3 days, and subsequently chronic IBD was induced by freely allowing to ingest 1% DSS solution starting from the 4th day of the test.
Compound A (2, 20 mg/kg/day), 5-aminosalicylic acid as a control (5-ASA: 200 mg/kg/day) and cyclosporine A (Cy A: 25 mg/kg/day) were administered to the animals starting from the 4th day of the test until the day of dissection (n=8 to 20).
The property of feces in individual animal was observed until the day before dissection, and the soft feces score and the blood feces score were determined according to the same basis as shown in Test Example 3 to obtain the sum of the soft feces score and blood feces score as the feces score.
Also, 1% Evans blue physiological saline was intravenously injected in an amount of 1 ml per rat on the day of dissection, and the animal was euthanized 30 minutes after that for excising the large intestine. After immobilizing the large intestine in the length of 7 to 8 cm from anus with 4% formalin buffer for 20 minutes, the intestine was longitudinally opened from the mesenterium side for photographing the rectal portion and measuring the rectum weight. The state and extent of eroded rectal portion were scored according to the following basis for making a macro observation score.
Macro observation score (0-5)
[0: normal, • 1: erosion formation in narrow ranges, • 2: weak erosion formation, without bleeding, • 3: moderate erosion formation and weak bleeding in narrow ranges, • 4: strong erosion formation and bleeding in narrow ranges, • 5: strong erosion formation and bleeding in wide ranges]
A therapeutic effect of Compound B orally administered was examined in the same manner as in Test Example 4 except that Compound B (20 mg/kg/day) was used in place of Compound A (n=12).

Data set [2] can be described thus: Test for converting Compound A into Compound B (oral 14C Compound A, Radio-HPLC). It is filed as in vivo, Wistar rats. The method, then:
Male 8 week-old Wistar rats (purchased from Japan SLC, Inc.) under fasting conditions were orally administered with ^14C labeled Compound A at a dose of 1 mg/kg, and the amounts of Compound B in plasma, urine and bile were determined by Radio-HPLC.

The test system of the next data set is splenocytes. The data set is described as follows: Direct effect on the activation of T cells: cytokine production by ovalbumin-stimulated splenocytes (ELISA). The following applies: for Production of IFNγ / Production of IL-2 / Production of IL-5: culture for 24 hours. It is filed as cell-based, Balb/c mice. The procedure: 7 week-old male Balb/c mice (purchased from Japan SLC, Inc.) were sensitized with an aluminum hydroxide gel-ovalbumin suspension administered intraperitoneally or subcutaneously in both inguinal regions on the first and 14th days, and the spleen was excised on the 21st day for preparing a splenocyte suspension. After removal of erythrocytes, Compound B (10 μM) and ovalbumin were added to splenocytes suspended in a culture medium, and the mixture was cultured at 37° C. under a condition of 5% CO2.
IL-4 in the supernatant after culture for 6 hours, and IL-2, IL-5 and IFNγ in the supernatant after culture for 24 hours were quantitatively determined by ELISA (ELISA kit manufactured by ENDOGEN).
In general terms: An ELISA detects its analyte on a solid surface through an enzyme-linked reagent.

Data set [3] has as its system carrageenin induced paw edema in rats. Put plainly: Carrageenin induced paw edema in rats. Type of data set: in vivo, Wistar rats. The method, then: To right hind paws of male 7 week-old Wistar rats (purchased from Japan SLC, Inc.) 0.1 ml of 1% λ-carrageenin was subcutaneously injected to cause paw edema reaction (n=5). Compound A at doses of 1 to 25 mg/kg and indomethacin at a dose of 5 mg/kg were orally administered 15 and 60 minutes before administration of carrageenin, respectively.
Three hours after administration of carrageenin, when the paw edema reaction reached maximum, the effectiveness was evaluated from the volumes of the right hind paw edema.
A general note: Carrageenan injected into the paw causes an acute inflammation.

A further data set has as its system DSS induced IBD model. Put plainly: 3% dextran sulfate sodium (DSS) induced acute rat IBD model (prophylactic effect). The following applies: for inhibition at 1 mg/kg/day / inhibition at 100 mg/kg/day: Rattus norvegicus, po, read-out: Inhibition rate (%); for Feces score: Table 3 (effectiveness on feces score). It is filed as in vivo, Wistar rats. The text has this: IBD was induced by freely allowing male 7 week-old Wistar rats (purchased from Japan SLC, Inc.) to ingest 3% DSS solution (n=8). In the period of 7 days after initiating DSS administration, soft feces and blood feces scores were observed according to the following basis, and the sum of the soft feces score and blood feces score was obtained as the feces score of the individual animal.
• Soft feces score (0 to 3) • [0: nothing abnormal detected (NAD), • 1: slightly soft, • 2: soft, • 3: diarrhea] • Blood feces score (0 to 3) • [0: nothing abnormal detected (NAD), • 1: blood in feces, • 2: bright-red blood adhered on feces, • 3: melena]
1% Evans blue physiological saline was intravenously injected in an amount of 1 ml per rat 8 days after DSS exposure, and the animal was euthanized 30 minutes after that for excising the large intestine. After immobilizing the large intestine in the length of 7 to 8 cm from anus with 4% formalin buffer for 20 minutes, the intestine was longitudinally opened from the mesenterium side for photographing the rectal portion. Ulcer area was calculated by image analysis.
Compound A (10 mg/kg/day), or. sulfasalazine (100 mg/kg/day) or prednisolone (1 mg/kg/day) as a control compound was made into suspension in an agate mortar, which was orally administered twice a day at a dose of 5 ml/kg to each rat starting from a day before administration of DSS to a day before dissection. In this connection, 1% hydroxypropylmethyl cellulose solution (HPMC) was used as a solvent, which was administered at a dose of 5 ml/kg to the solvent treated group.

Another data set deals with TNBS induced IBD model. Put plainly: Trinitrobenzene sulfonic acid (TNBS) induced rat IBD model (therapeutic effect). It is filed as in vivo, SD rats. The following applies: for Colonic ulceration score: 3 mg/kg × 2 oral. The method, then: 8 week-old male SD rats (purchased from Charles River
Laboratories Japan, Inc.) were intrarectally treated with TNBS to induce enteritis, and divided into groups 2 days after the treatment with TNBS to initiate the administration of the drugs. A solvent, Compound A (2, 20, 50 mg/kg/day), or prednisolone (6 mg/kg/day) was orally administered twice a day, and the rats were subjected to autopsy 8 days after administration for determining the macro observation score. The evaluation of the score was conducted by the method described in Table 4 according to the judgment method by JOHN L. WALLACE et al. (Gastroenterology 1989; 96: 29-36).
Furthermore, the large intestine was cut to a length of 10 cm for measuring the wet weight of intestine.

A further data set deals with IBD. The following applies: ulcerative colitis and Crohn's disease, literature; cited from earlier work.

On to `Nc1ccc(O)c(C(=O)O)c1` [Compound 5-ASA, 5-aminosalicylic acid, reference compound], for which the “Inhibitory effects in any evaluation items” value in data set [1] (200 mg/kg/day from 4th day) is “significant inhibitory effects were not recognized”.
As to `COc1cc2[nH]c(=O)c3nn[nH]c3c(=O)c2cc1OC` [Compound B, 7,8-dimethoxy-4(5H),10-dioxo-1H-1,2,3-triazolo[4,5-c][1]benzoazepine], the Detection in plasma result in data set [2] (15 minutes after oral 14C labeled Compound A 1 mg/kg, fasting rats) is “detected as the main metabolite”. Further, the Detection in bile result in data set [2] (bile collected for 8 hours after oral 14C labeled Compound A 1 mg/kg) is “detected as the main metabolite”. For the same molecule, in data set [2] (urine collected for 24 hours after oral 14C labeled Compound A 1 mg/kg), the Detection in urine entry is on record as “detected as the main metabolite”. Besides, in data set [1] (20 mg/kg/day oral), the “Effect on macro observation score” value was “an inhibitory effect was recognized”. For the same molecule, in data set [1] (20 mg/kg/day oral, n=12, solvent treated group 1.9±0.25, P<0.05), the “Feces score on the day before dissection” value is reported as 0.9±0.24. For the same molecule, the “Side effects such as inhibition of weight gain” value in data set [1] (rat, in vivo) is listed as “not observed”. Besides, the “Production of IL-4” value with splenocytes (10 μM, culture for 6 hours) is recorded as “did not inhibit”. In addition, in the data set on splenocytes (10 μM), the “Production of IFNγ” value was “did not inhibit”, the “Production of IL-2” value is “did not inhibit” and the “Production of IL-5” value is “did not inhibit”.
In the case of `COc1ccc2c(c1)c(CC(=O)O)c(C)n2C(=O)c1ccc(Cl)cc1` [Indomethacin, indomethacin, reference compound], in data set [3] (5 mg/kg oral), the “Inhibitory effect on paw edema” value is “significant (p<0.01) inhibitory effect”. This molecule came in with a Volume of edema in data set [3] (5 mg/kg oral 60 min before carrageenin, 3 h after carrageenin, mean ± SE) of 0.48 ± 0.04 mL.
Regarding `C[C@]12C=CC(=O)C=C1CC[C@@H]1[C@@H]2[C@@H](O)C[C@@]2(C)[C@H]1CC[C@]2(O)C(=O)CO` [Prednisolone, prednisolone, reference compound], the “Weight gain (side effect)” value in the data set on DSS induced IBD model (1 mg/kg/day oral) is listed as “significant weight gain inhibitory effect”. Moreover, the inhibition at 1 mg/kg/day in the data set with DSS induced IBD model (Table 2 (ulcer area reduction effect), 1 mg/kg/day oral) was determined as 26.1%. Also, the inhibition at 1 mg/kg/day in the data set with DSS induced IBD model (Table 3 (feces score), 1 mg/kg/day oral) came out at 40.7%. The molecule further yielded a ulcer area in the data set on DSS induced IBD model (Table 2 (title: ulcer area reduction effect), 1 mg/kg/day oral, twice a day, mean ± SE) of 337.5 ± 34.1. The molecule further showed a Feces score in the data set with DSS induced IBD model (1 mg/kg/day oral, mean ± SE) of 2.00 ± 0.42. Also, in the data set on TNBS induced IBD model (from 2 days after TNBS), the Colonic ulceration score is 3.0 ± 0.5^b. The Weight gain entry with TNBS induced IBD model (6 mg/kg/day oral) is “remarkable inhibition of (P<0.01) weight gain”. The Colonic ulceration score in the data set on TNBS induced IBD model (Table 6 (title: colonic wet weight of large intestine, 10 cm)) is 1.05 ± 0.09^bb. Further, in the data set with splenocytes (concentration not given), the “Production of IFNγ” value is “almost completely inhibited”, the “Production of IL-2” value was “almost completely inhibited” and the “Production of IL-5” value is “almost completely inhibited”.
Turning to `O=C(O)c1cc(/N=N/c2ccc(S(=O)(=O)Nc3ccccn3)cc2)ccc1O` [Sulfasalazine, sulfasalazine], the inhibition at 100 mg/kg/day in the data set with DSS induced IBD model (Table 2 (ulcer area reduction effect), 100 mg/kg/day oral) worked out at 8.2%; in the data set with DSS induced IBD model (Table 3 (feces score), 100 mg/kg/day oral), 22.2%. In the data set on DSS induced IBD model (100 mg/kg/day oral, mean ± SE), this molecule displayed a Feces score of 2.63 ± 0.50.
For the molecule `O=C([O-])c1cc(=O)c2c(OCC(O)COc3cccc4oc(C(=O)[O-])cc(=O)c34)cccc2o1.[Na+].[Na+]` [disodium cromoglycate], in the data set with IBD, the “Effectiveness against IBD” value is recorded as “ineffective against IBD”.
